Values quoted from earlier work in patent US20130102943A1, “RELOADABLE FINISHES FOR TEXTILES AND FORMULATIONS FOR LOADING SUCH FINISHES” (SCHOELLER TEXTIL AG, priority 2009, published 2013).

Tested on: gram-negative and gram-positive bacteria, as well as yeasts and molds

## CCCCCCCCCCCC(=O)N[C@@H](CCCNC(=N)N)C(=O)OCC.Cl [Lauroyl arginate, Ethyl-N-alpha-lauroyl-L-arginate HCl]
  antimicrobial effectiveness: effective
